Marks after values point to notes of the source that are not given here.
Tests used:
[1] = tested on: Allium cepa root meristem cells; assay: Comet assay; format: in vivo; details: 0.0714 mg/L, 72 h germination
[2] = tested on: Allium cepa root meristem cells; assay: Chromosomal abnormality, MN and mitotic index test; format: in vivo; details: 0.0714 mg/L, 72 h germination

`[N-]=[N+]=[N-].[Na+]` [NaN3, sodium azide] was tested, and the “Head DNA (%)” value [1] was 25.0 ± 1.35^e %, the Head density [1] was 75.475 and the “Head diameter (px)” value [1] was 8.000 px. The “Tail DNA (%)” value [1] was 75.0 ± 1.35^a %, the Tail density [1] was 196.278 and the “Tail length (px)” value [1] was 72.000 px. For the same compound, the Tail moment [1] was 53.981, the “Tail DNA (%)” value ([1]; listed as NaN₃) was 75.0 ± 1.35% and the Binuclear cell ([2]; 1.000 cells per group) was 71.9 ± 3.95^a. For the same compound, the Bridge ([2]; 1.000 cells per group) was 48.3 ± 4.20^a, the Disorientation ([2]; 1.000 cells per group) was 56.4 ± 4.16^a and the Fragment ([2]; 1.000 cells per group) was 34.9 ± 3.59^a. The Micronucleus ([2]; 1.000 cells per group) was 75.7 ± 8.27^a, the Nucleus bud ([2]; 1.000 cells per group) was 41.0 ± 3.81^a and the Sticky chromosome ([2]; 1.000 cells per group) was 72.7 ± 4.74^a. The “Unequal distribution of chromatin” value ([2]; 1.000 cells per group) was 51.5 ± 3.72^a, the Vagrant chromosome ([2]; 1.000 cells per group) was 67.7 ± 3.82^a and the Micronucleus ([2]; 1.000 cells per group, listed as NaN₃) was 75.7 ± 8.27. For the same compound, the “Mitotic index (%)” value ([2]; 10.000 cells per group) was 6.75% and the “Mitotic index: number of dividing cells” value ([2]; 10.000 cells per group) was 675 ± 11.2.

Reference: PMC12475174 (Scientific Reports, 2025)
